Assay [1] deals with SCC12 cells. Nature of the assay: SCC12 cell viability after 24 h treatment (Supplementary Figure 3). In kind it is cell-based. As to conditions: Homo sapiens. How it is done: The effect of subamolide B on cell viability was mostly evaluated using CellTiter 96 AQueous Non-Radioactive Cell Proliferation Assay (MTS assay) kit (Promega, Madison, WI, USA) as previously described. Alternatively, propidium iodide (PI) exclusion assay was employed to determine cell viability. In brief, 4 × 10^5 SCC12 cells were seeded onto 6-well dishes and were subjected to 48 h treatment with subamolide B. Cells were then trypsinized, collected by centrifugation, and washed twice with PBS. Subsequently, cells were stained with 10 μg/ml of PI in PBS for 15 min in the dark, followed by flow cytometry analysis to determine the levels of PI incorporation.
Supplementary Figure Legends (Yang et al.) […]
Supplementary Figure 3. SCC12 cells were resistant to imiquimod-induced cytotoxicity.
SCC12 cells were treated with increasing doses of subamolide B (0~20 µM) (A) or
imiquimod (0~50 µg/ml) (B) for 24 h, and the viability of imiquimod-treated cells was
evaluated thereafter. It is noted that 20 µM (6.897 µg/ml) of subamolide B reduced the
viability of SCC12 cells to 50.47±5.89% compared to the drug-untreated control, whereas
65.00±4.32% of SCC12 cells were still viable after treatment with 50 µg/ml of imiquimod.

In assay [2] the test system is A375 (melanoma) cells. Nature of the assay: Cell viability determination via MTS assay, A375. In kind it is cell-based. As to conditions: Homo sapiens, A-375; A375, 48 h treatment; read-out: IC50 (reduce cell viability by 50%). How it is done: (§1) The human cutaneous squamous cell carcinoma cell line SCC12 (kindly provided by Prof. Xiaoqi Wang, Northwestern University, USA) was grown in DMEM/F-12 (1 : 1) medium. The human malignant melanoma cell line A375 (ATCC number: CRL-1619), human epidermoid carcinoma cell line A-431 (ATCC number: CRL-1555), and HEK293T cells (ATCC number: CRL-11268) were grown in DMEM medium, whereas the human basal cell carcinoma cell line BCC-1/KMC [25] was cultured in RPMI1640 medium. […]
(§2) The effect of subamolide B on cell viability was mostly evaluated using CellTiter 96 AQueous Non-Radioactive Cell Proliferation Assay (MTS assay) kit (Promega, Madison, WI, USA) as previously described. […]
(§3) Figure 1 Cytotoxic effect of subamolide B on human skin cancer cell lines. […] 14 days later, the extent of subamolide B-mediated repression of SCC12 colony formation was evaluated by the numbers of colonies grown on culture dishes. […] (c) Quantitative analysis of subamolide B-mediated repression of SCC12 colony formation. The numbers of colonies shown in (b) were counted and the results were presented as the percentage of drug-treated groups compared to the drug-free controls. ***P < 0.001.

Assay [3] has as its system A-431 (epidermoid carcinoma) cells. Nature of the assay: Cell viability determination via MTS assay, A-431. The assay is classed as cell-based. To be noted: Homo sapiens; A-431, 48 h treatment; read-out: IC50 (reduce cell viability by 50%). How it is done: as §1, §2, §3
(In general: Tetrazolium dyes change colour on reduction, which living cells bring about.)

In assay [4] the test system is BCC-1/KMC (basal cell carcinoma) cells. Nature of the assay: Cell viability determination via MTS assay, BCC-1/KMC. As to conditions: Homo sapiens, BCC1, 48 h treatment, read-out: IC50 (reduce cell viability by 50%). In kind it is cell-based. As to the method:
as §1, §2, §3

Assay [5] relates to SCC12 (cutaneous squamous cell carcinoma) cells. Nature of the assay: Cell viability determination via MTS assay, SCC12. In kind it is cell-based. As to conditions: Homo sapiens; SCC12, 48 h treatment; read-out: IC50 (reduce cell viability by 50%). How it is done: as §1, §2, §3
Assay [6] has as its system CCD-966SK normal skin fibroblasts. Nature of the assay: Cell viability determination via MTS assay, CCD-966SK. To be noted: Homo sapiens, Skin fibroblast, 48 h treatment, read-out: IC50 (reduce cell viability by 50%). The assay is classed as cell-based. How it is done:
as §1, §2, §3

The test system of assay [7] is WS1 normal skin fibroblasts. Nature of the assay: Cell viability determination via MTS assay, WS1. The assay is classed as cell-based. As to conditions: Homo sapiens, Skin fibroblast; WS1, 48 h treatment; read-out: IC50 (reduce cell viability by 50%). How it is done:
as §1, §2, §3

The subject of assay [8] is IMR-90 normal lung fibroblasts. Nature of the assay: Cell viability determination via MTS assay, IMR-90. In kind it is cell-based. As to conditions: Homo sapiens; IMR-90, 48 h treatment; read-out: IC50 (reduce cell viability by 50%). As to the method:
as §1, §2, §3

Assay [9] relates to MRC-5 normal lung fibroblasts. Nature of the assay: Cell viability determination via MTS assay, MRC-5. In kind it is cell-based. To be noted: Homo sapiens, MRC5; MRC-5, 48 h treatment; read-out: IC50 (reduce cell viability by 50%). How it is done: as §1, §2, §3
In assay [10] the test system is WI-38 normal lung fibroblasts. Nature of the assay: Cell viability determination via MTS assay, WI-38. To be noted: Homo sapiens; WI-38, 48 h treatment; read-out: IC50 (reduce cell viability by 50%). The assay is classed as cell-based. How it is done:
as §1, §2, §3

Assay [11] has as its system SCC12 cells. Nature of the assay: Colony formation assay. In kind it is cell-based, human. As to conditions: 24 h treatment, then drug-free media 14 days. As to the method:
The effect of subamolide B on the long-term survival of SCC12 cells was assessed using colony formation assay in accordance with the reported procedure. […] […] The colonies composed of 50 or more cells were counted under microscopy. At least three independent assays were performed to calculate the numbers of colonies for statistical analysis.
Figure 1 Cytotoxic effect of subamolide B on human skin cancer cell lines. (a) Dose-dependent cytotoxicity of subamolide B. Human skin cancer cell lines, including A375 (melanoma), A-431 (epidermoid carcinoma), BCC-1/KMC (basal cell carcinoma) and SCC12 (cutaneous squamous cell carcinoma), normal human skin fibroblast cell lines CCD-966SK and WS1, and normal human lung fibroblast cell lines IMR-90, MRC-5, and WI-38 were treated with graded doses of subamolide B (0~20 μM), followed by cell viability determination via MTS assay as described in Section 2. […] 14 days later, the extent of subamolide B-mediated repression of SCC12 colony formation was evaluated by the numbers of colonies grown on culture dishes. […] (c) Quantitative analysis of subamolide B-mediated repression of SCC12 colony formation. The numbers of colonies shown in (b) were counted and the results were presented as the percentage of drug-treated groups compared to the drug-free controls. ***P < 0.001.

Assay [12] deals with SCC12 cells. Nature of the assay: Annexin-V/propidium iodide dual staining assay (flow cytometry). To be noted: subamolide B 20 μM, 24 h. In kind it is cell-based, human. How it is done: Annexin V/PI dual staining assay was employed to determine the involvement of apoptosis in subamolide B-induced cell death, using ApoTarget Annexin-V-FITC Apoptosis kit (Biosource, Camarillo, CA, USA) as described previously. If required, the pan-caspase inhibitor z-VAD-fmk (20 μM) was added to SCC12 cells 2 h before subamolide B treatment.
Figure 2 Apoptosis is partly responsible for subamolide B-induced SCC12 cell death. ((a), (b)) Subamolide B induces dose- and time-dependent proteolytic processing/activation of caspases-8, -9, -4, and -3. […] Subamolide B (20 μM) was used to treat SCC12 cells for 24 h without or with cotreatment of the pan-caspase inhibitor z-VAD-fmk (20 μM). […] The levels of apoptotic cells were indicated as the percentage of all cell populations as shown in (d). ***P < 0.001. […]
(In flow cytometry, cells or beads pass a laser one at a time.)

The test system of assay [13] is ATF6 transcriptional activity. Nature of the assay: ATF6 transcriptional activity luciferase reporter assay (p5xATF6-GL3). In kind it is cell-based. To be noted: Homo sapiens, SCC12 cells, 24 h, vs drug-untreated control. An excerpt:
The ATF6 activity reporter plasmid p5xATF6-GL3 (Addgene plasmid 11976) carries five ATF6 response elements in tandem to drive the expression of firefly luciferase. The human CHOP promoter, which encompasses the region between −947 and +30 (+1 is the transcriptional start site) was PCR-amplified from the genomic DNA of peripheral blood mononuclear cells using the primer pair 5′-[…]-3′ (forward) and 5′-[…]-3′ (reverse). The 978-bp fragment was cloned into the luciferase reporter plasmid pGL4.18 vector (Promega, Madison, WI, USA) to generate the human CHOP promoter reporter plasmid (pCHOP-Luc). Luciferase activity assay was performed using Dual-Luciferase Reporter assay kit (Promega, Madison, WI, USA) as reported previously. Luciferase activity was normalized to Renilla luciferase activity, and final results were expressed as fold induction of the luciferase activity after subamolide B stimulation compared to that of drug-untreated control.
Figure 5 Subamolide B is an ER stress inducer. (a) Subamolide B upregulates signature ER stress markers GRP78 and CHOP. […] The level of CHOP mRNA in SCC12 cells after 24 h treatment with subamolide B (0~20 μM) was assessed by semiquantitative RT-PCR analysis. β-actin was used as the loading control. […] ATF6 transcriptional activity was then evaluated by luciferase activity assay. […]
(In a reporter assay the amount or activity of a reporter protein is the signal.)

Several values for one entry are separate records, joined by “and”; a condition that tells them apart may be missing. Identical values can stand only once.

As a reminder, the viability is the share of living cells, or the viability signal relative to a control. As a reminder, the IC50 is the midpoint of a concentration-inhibition curve. The fold induction is the ratio of treated to control signal. High values mean a large rise in signal, low ones little rise in signal.

For the molecule `CC(C)Cn1cnc2c(N)nc3ccccc3c21` [imiquimod, reference compound], in assay [1] (SCC12, imiquimod 50 μg/ml, 24 h, read-out: SCC12 cell viability, % of the drug-untreated control), the viability at 50 µg/mL stood at 65 ± 4.32%.
Consider `CCCCCCCCCCCCC/C=C1/C(=O)O[C@@](C)(OC)[C@@H]1O` [subamolide B, (3E,4R,5R)-3-tetradecylidene-4-hydroxy-5-methoxy-5-methyl-butanolide], for which the IC50 in [2] is 17.6 µM; in assay [3] it was 13.3 µM; in assay [4], greater than 20 µM; in [5], 9.12 µM; in [6], greater than 20 µM; in [7] it was greater than 20 µM. In addition, the IC50 in assay [8] was greater than 20 µM; in assay [9], greater than 20 µM; in assay [10], greater than 20 µM; in assay [1] (SCC12, 24 h treatment, read-out: IC50 (SCC12 cytotoxicity)), 6.9 µg/mL and 20.3 µM. In addition, the “SCC12 colony formation, % of the drug-untreated control” value stood at 58.93 ± 2.40% in assay [11] (10 μM) and 28.20 ± 10.87% in assay [11] (20 μM). Moreover, the results for the “level of apoptotic cells (percentage of all cell populations)” value in assay [12] (cotreated with z-VAD-fmk 20 μM) and in assay [12] (without z-VAD-fmk) were 18.6 ± 0.42% and 32.55 ± 3.65%, respectively. The fold induction at 10 µM in assay [13] amounted to 16.1 ± 2.06. For the same molecule, in [1] (SCC12, subamolide B 20 μM (6.897 μg/ml), 24 h, read-out: SCC12 cell viability, % of the drug-untreated control), the viability at 20 µM worked out at 50.5 ± 5.89%.
